# Patent US8846933B2, “N-link hydroxamic acid derivatives useful as antibacterial agents” (Pfizer Inc., priority 2009, dated 2014)
# Assays:
# [1] = tested on: Escherichia coli EC-1: VOGEL, mouse virulent; experiment: MIC determination (CLSI), strain EC-1; type: cell-based; conditions: strain EC-1, unit assumed
# Summary of the method: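 The mouse-virulent VOGEL isolate of E. coli, EC-1, served as test organism. Minimum inhibitory concentration was measured by CLSI dilution methodology (M7-A7; M100-S18 standards).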
# [2] = tested on: Pseudomonas aeruginosa UI-18: Wild-type (PA-7); experiment: MIC determination (CLSI), strain PA-7; type: cell-based; conditions: strain PA-7, unit assumed
# Summary of the method: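 Strain tested was P. aeruginosa UI-18, a wild-type isolate labelled PA-7. Minimum inhibitory concentrations followed CLSI dilution methodology for aerobically growing bacteria (M7-A7, M100-S18).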
# [3] = generated in the same manner as in Table 4
Compound,EC-1 (MIC) [1] [µg/mL],PA-7 (MIC) [2] [µg/mL],"EC-1 (MIC) [1, 3] [µg/mL]","PA-7 (MIC) [2, 3] [µg/mL]"
"CC(CCn1ccc(-c2cc(F)ccc2F)cc1=O)(C(=O)NO)S(C)(=O)=O (stereo not drawn) [Example 196, 4-[4-(2,5-difluorophenyl)-2-oxopyridin-1(2H)-yl]-N-hydroxy-2-methyl-2-(methylsulfonyl)butanamide]",8,4,–,–
"CC(O)Cc1cccc(-c2ccn(CCC(C)(C(=O)NO)S(C)(=O)=O)c(=O)c2)c1 (stereo not drawn) [Example 231, N-hydroxy-4-{4-[3-(2-hydroxypropyl)phenyl]-2-oxopyridin-1(2H)-yl}-2-methyl-2-(methylsulfonyl)butanamide]",> 64,> 64,–,–
"Cc1cccc(-c2ccn(CCC(C)(C(=O)NO)S(C)(=O)=O)c(=O)c2)c1 (stereo not drawn) [Example 178, N-hydroxy-2-methyl-4-[4-(3-methylphenyl)-2-oxopyridin-1(2H)-yl]-2-(methylsulfonyl)butanamide]",–,–,4,2
"Cc1cc(C(N)=O)ccc1-c1ccn(CCC(C)(C(=O)NO)S(C)(=O)=O)c(=O)c1 (stereo not drawn) [Example 113, 4-{1-[4-(hydroxyamino)-3-methyl-3-(methylsulfonyl)-4-oxobutyl]-2-oxo-1,2-dihydropyridin-4-yl}-3-methylbenzamide]",–,–,> 64,> 64
"C[C@@](CCn1ccc(-c2ccc(CCC#N)cc2)cc1=O)(C(=O)NO)S(C)(=O)=O [Example 347, (2R)-4-{4-[4-(2-cyanoethyl)phenyl]-2-oxopyridin-1(2H)-yl}-N-hydroxy-2-methyl-2-(methylsulfonyl)butanamide]",64,4,–,–
"CC(CCn1ccc(-c2ccc(OCCO)c(Cl)c2Cl)cc1=O)(C(=O)NO)S(C)(=O)=O (stereo not drawn) [Example 234, 4-{4-[2,3-dichloro-4-(2-hydroxyethoxy)phenyl]-2-oxopyridin-1(2H)-yl}-N-hydroxy-2-methyl-2-(methylsulfonyl)butanamide]",64,32,–,–
"CNS(=O)(=O)c1ccc(-c2ccn(CCC(C)(C(=O)NO)S(C)(=O)=O)c(=O)c2)cc1 (stereo not drawn) [Example 102, N-hydroxy-2-methyl-4-[4-{4-[(methylamino)sulfonyl]phenyl}-2-oxopyridin-1(2H)-yl]-2-(methylsulfonyl)butanamide]",–,–,> 64,> 64
"CNC(=O)c1ccc(-c2ccn(CCC(C)(C(=O)NO)S(C)(=O)=O)c(=O)c2)cc1 (stereo not drawn) [Example 188, 4-{1-[4-(hydroxyamino)-3-methyl-3-(methylsulfonyl)-4-oxobutyl]-2-oxo-1,2-dihydropyridin-4-yl}-N-methylbenzamide]",> 64,> 64,–,–
"CC(CCn1ccc(-c2ccc(F)cc2F)cc1=O)(C(=O)NO)S(C)(=O)=O (stereo not drawn) [Example 186, 4-[4-(2,4-difluorophenyl)-2-oxopyridin-1(2H)-yl]-N-hydroxy-2-methyl-2-(methylsulfonyl)butanamide]",2,2,–,–
C[C@@](CCn1ccc(-c2cccc(OC(F)F)c2)cc1=O)(C(=O)NO)S(C)(=O)=O [Example 480],8,4,–,–
"CC(CCn1ccc(-c2ccc3cc(OCCCO)ccc3c2)cc1=O)(C(=O)NO)S(C)(=O)=O (stereo not drawn) [Example 274, N-hydroxy-4-{4-[6-(3-hydroxypropoxy)-2-naphthyl]-2-oxopyridin-1(2H)-yl}-2-methyl-2-(methylsulfonyl)butanamide]",0.25,2,–,–
"CC(CCn1ccc(-c2ccc(F)c(F)c2)cc1=O)(C(=O)NO)S(C)(=O)=O (stereo not drawn) [Example 134, 4-[4-(3,4-difluorophenyl)-2-oxopyridin-1(2H)-yl]-N-hydroxy-2-methyl-2-(methylsulfonyl)butanamide]",–,–,4,4
"Cn1c(C#N)ccc1-c1ccn(CCC(C)(C(=O)NO)S(C)(=O)=O)c(=O)c1 (stereo not drawn) [Example 194, 4-[4-(5-cyano-1-methyl-1H-pyrrol-2-yl)-2-oxopyridin-1(2H)-yl]-N-hydroxy-2-methyl-2-(methylsulfonyl)butanamide]",> 64,> 64,–,–
"CC(=O)c1cccc(-c2ccn(CCC(C)(C(=O)NO)S(C)(=O)=O)c(=O)c2)c1 (stereo not drawn) [Example 127, 4-[4-(3-acetylphenyl)-2-oxopyridin-1(2H)-yl]-N-hydroxy-2-methyl-2-(methylsulfonyl)butanamide]",–,–,16,32
"COCCOCCOc1ccc(-c2ccn(CC[C@](C)(C(=O)NO)S(C)(=O)=O)c(=O)c2)cc1 [Example 403, (2R)-N-hydroxy-4-[4-{4-[2-(2-methoxyethoxy)ethoxy]phenyl}-2-oxopyridin-1(2H)-yl]-2-methyl-2-(methylsulfonyl)butanamide]",1,4,–,–
"C[C@@](CCn1ccc(-c2ccc(-c3ncc(Cl)cn3)cc2)cc1=O)(C(=O)NO)S(C)(=O)=O [Example 458, (2R)-4-{4-[4-(5-chloropyrimidin-2-yl)phenyl]-2-oxopyridin-1(2H)-yl}-N-hydroxy-2-methyl-2-(methylsulfonyl)butanamide]",0.06,0.5,–,–
"Cc1cc(-c2ccn(CCC(C)(C(=O)NO)S(C)(=O)=O)c(=O)c2)ccc1OCCO (stereo not drawn) [Example 235, N-hydroxy-4-{4-[4-(2-hydroxyethoxy)-3-methylphenyl]-2-oxopyridin-1(2H)-yl}-2-methyl-2-(methylsulfonyl)butanamide]",8,8,–,–
"COc1cc(-c2ccn(CCC(C)(C(=O)NO)S(C)(=O)=O)c(=O)c2)ccc1F (stereo not drawn) [Example 208, 4-[4-(4-fluoro-3-methoxyphenyl)-2-oxopyridin-1(2H)-yl]-N-hydroxy-2-methyl-2-(methylsulfonyl)butanamide]",32,16,–,–
"Cc1ccc(N)cc1-c1ccn(CCC(C)(C(=O)NO)S(C)(=O)=O)c(=O)c1 (stereo not drawn) [Example 108, 4-[4-(5-amino-2-methylphenyl)-2-oxopyridin-1(2H)-yl]-N-hydroxy-2-methyl-2-(methylsulfonyl)butanamide]",–,–,> 64,> 64
CCOc1ccc(-c2ccn(CC[C@](C)(C(=O)NO)S(C)(=O)=O)c(=O)c2)cc1C#N [Example 479],64,16,–,–
"CC(CCn1ccc(-c2ccsc2)cc1=O)(C(=O)NO)S(C)(=O)=O (stereo not drawn) [Example 107, N-hydroxy-2-methyl-2-(methylsulfonyl)-4-[2-oxo-4-(3-thienyl)pyridin-1(2H)-yl]butanamide]",–,–,32,16
"CC(CCn1ccc(-c2ccc(OCCc3cccnc3)cc2)cc1=O)(C(=O)NO)S(C)(=O)=O (stereo not drawn) [Example 271, N-hydroxy-2-methyl-2-(methylsulfonyl)-4-{2-oxo-4-[4-(2-pyridin-3-ylethoxy)phenyl]pyridin-1(2H)-yl}butanamide]",0.25,2,–,–
"COc1cc(-c2ccn(CCC(C)(C(=O)NO)S(C)(=O)=O)c(=O)c2)ccc1OCCCN1CCOCC1 (stereo not drawn) [Example 227, N-hydroxy-4-{4-[3-methoxy-4-(3-morpholin-4-ylpropoxy)phenyl]-2-oxopyridin-1(2H)-yl}-2-methyl-2-(methylsulfonyl)butanamide]",64,64,–,–
"CC(CCn1ccc(-c2cccc(-n3cccn3)c2)cc1=O)(C(=O)NO)S(C)(=O)=O (stereo not drawn) [Example 111, N-hydroxy-2-methyl-2-(methylsulfonyl)-4-{2-oxo-4-[3-(1H-pyrazol-1-yl)phenyl]pyridin-1(2H)-yl}butanamide]",–,–,> 64,> 64
